16 compounds from ChEMBL document CHEMBL1201862, “PubChem BioAssay data set” (2004) can be followed below.

Among the test systems are 786-0; SNB-19; UACC-62; HOP-62; K562; TK-10; NCI-H226; A498; NCI-H23; KM12; ACHN; CCRF-CEM; HCC 2998; SK-MEL-2; HCT-15.
What all share (experiment): growth of human tumour cells (NCI), 48 h

The structures appear in SMILES notation.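 Assay format: 96-well plates, 48-hour exposure. At the GI50, growth is halved.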 Calls of active or inactive are those of the source. No stated cut-off is given here; in the data, active = GI50 up to about 1.1 µM and inactive = higher. Where only a bound is given, the exact number is not on record here.

For `CC(=O)c1ccc(NC(=O)COC(=O)c2cccc3c(=O)c4ccccc4[nH]c23)cc1`, the GI50 was 37.8 µM (inactive) in the assay on 786-0; 22.5 µM (inactive) with SNB-19; 24.9 µM (inactive) in the assay on UACC-62; 31.5 µM (inactive) in the assay on HOP-62; > 100 µM (inactive) in the assay on K562; 21.7 µM (inactive) in the assay on TK-10. Besides, the GI50 in the assay with NCI-H226 is 19.4 µM (inactive); with A498, 44 µM (inactive); in the assay on NCI-H23, 18.6 µM (inactive); with KM12 it was 12.9 µM (inactive); with ACHN it was 27.8 µM (inactive); in the assay on CCRF-CEM, > 100 µM (inactive). For the same compound, the GI50 with HCC 2998 is > 100 µM (inactive).
`CC(=O)C=C1Nc2ccccc2N1`: the GI50 in the assay with 786-0, in the assay with SNB-19, in the assay on UACC-62, in the assay on K562, in the assay on SK-MEL-2 and in the assay on NCI-H226 was > 100 µM (inactive) in each case. The GI50 with HCT-15 is over 100 µM; in the assay with NCI-H23, > 100 µM (inactive); in the assay on KM12, > 100 µM (inactive); in the assay on ACHN, > 100 µM (inactive); with CCRF-CEM, > 100 µM (inactive); with HCC 2998, > 100 µM (inactive).
In the case of `CC[N+](CC)(CC)Cc1cc2ccccc2n1C(=O)OC`, the GI50 with 786-0, with SNB-19, with UACC-62, in the assay on HOP-62, with K562 and with SK-MEL-2 was > 100 µM (inactive) each time. In addition, the GI50 in the assay on TK-10 is > 100 µM (inactive); in the assay on NCI-H226 it was > 100 µM (inactive); in the assay with HCT-15, over 100 µM; in the assay with NCI-H23, > 100 µM (inactive); with KM12, > 100 µM (inactive); in the assay with ACHN, > 100 µM (inactive). The GI50 with CCRF-CEM and with HCC 2998 was > 100 µM (inactive) each time.
On to `CC(C)N(C(=O)C12C3C4C1C1C2C3C41C(O)C(C)(C)C)C(C)C` (stereo not drawn), for which the GI50 was > 50 µM (inactive) in the assay on 786-0; > 50 µM (inactive) with SNB-19; > 50 µM (inactive) in the assay on UACC-62; > 50 µM (inactive) in the assay on HOP-62; > 50 µM (inactive) in the assay with K562; over 50 µM in the assay on HCT-15. The GI50 in the assay on A498, with ACHN, in the assay on CCRF-CEM and in the assay with HCC 2998 was > 50 µM (inactive) each time.
As to `CC1(C)O[C@@H](CC/C=C/CO)[C@H](CC/C=C/CO)O1`, the GI50 in the assay on 786-0, in the assay with SNB-19, in the assay with HOP-62, in the assay on K562, in the assay with SK-MEL-2 and with TK-10 was > 100 µM (inactive) throughout. Moreover, the GI50 in the assay on NCI-H226 is > 100 µM (inactive); in the assay with HCT-15, over 100 µM; in the assay on A498 it was > 100 µM (inactive); in the assay on NCI-H23 it was > 100 µM (inactive); with KM12, > 100 µM (inactive); in the assay with ACHN, > 100 µM (inactive). Also, the GI50 in the assay on CCRF-CEM and in the assay with HCC 2998 was > 100 µM (inactive) throughout.
`C=C1C(=O)c2cc3c(cc2C(c2cc(OC)c(OC)c(OC)c2)[C@@H]1C(=O)O)OCO3` (stereo partly drawn): the GI50 was 37 µM (inactive) with 786-0; 27 µM (inactive) with UACC-62; 32.1 µM (inactive) in the assay with K562; > 100 µM (inactive) in the assay with TK-10; > 100 µM (inactive) in the assay with NCI-H226; 38 µM with HCT-15. The GI50 with A498 is 32.6 µM (inactive); with NCI-H23, 57.7 µM (inactive); with KM12 it was 44.5 µM (inactive); in the assay on ACHN, > 100 µM (inactive); in the assay with CCRF-CEM, 33 µM (inactive); in the assay on HCC 2998 it was > 100 µM (inactive).
In the case of `Clc1ccc(C(c2ccc(Cl)cc2)c2ccccn2)cc1`, the GI50 is 16.7 µM (inactive) in the assay with 786-0; 22.3 µM (inactive) in the assay with SNB-19; 16.4 µM (inactive) with UACC-62; 21.6 µM (inactive) in the assay on K562; 19 µM (inactive) in the assay on SK-MEL-2; 19.7 µM (inactive) with TK-10. Moreover, the GI50 in the assay with NCI-H226 is 17.1 µM (inactive); in the assay with HCT-15, 17.3 µM; in the assay on NCI-H23, 31.6 µM (inactive); in the assay with KM12, 19.1 µM (inactive); with ACHN, 18.1 µM (inactive); in the assay with CCRF-CEM it was 21.5 µM (inactive). In addition, the GI50 in the assay on HCC 2998 is 15.9 µM (inactive).
Turning to `Cc1ccc2[nH]c(Sc3c([N+](=O)[O-])ncn3C)nc2c1`, the GI50 in the assay on 786-0 is 27.8 µM (inactive); in the assay on SNB-19 it was > 100 µM (inactive); in the assay with UACC-62, 19 µM (inactive); with HOP-62 it was > 100 µM (inactive); in the assay with TK-10, 44.9 µM (inactive); in the assay with NCI-H226 it was 12.8 µM (inactive). Moreover, the GI50 is 13.8 µM in the assay on HCT-15; 25.1 µM (inactive) in the assay on A498; 18.6 µM (inactive) with NCI-H23; 67 µM (inactive) in the assay with KM12; 33 µM (inactive) with ACHN; 15.7 µM (inactive) in the assay on HCC 2998.
As to `CCCN/C(N)=N/C#N`, the GI50 with 786-0 is 25.3 µM (inactive); in the assay on SNB-19, > 100 µM (inactive); in the assay with UACC-62, > 100 µM (inactive); in the assay with HOP-62 it was > 100 µM (inactive); in the assay on K562, 60.3 µM (inactive); in the assay on SK-MEL-2, > 100 µM (inactive). In addition, the GI50 is > 100 µM (inactive) in the assay on TK-10; > 100 µM (inactive) with NCI-H226; 19.4 µM with HCT-15; 67.6 µM (inactive) in the assay on A498; > 100 µM (inactive) in the assay on NCI-H23; > 100 µM (inactive) with KM12. For the same compound, the GI50 in the assay with ACHN and in the assay on HCC 2998 was > 100 µM (inactive) each time.
In the case of `O=C(O)C(C(=O)C(=O)C(C(=O)O)c1ccc(Cl)cc1)c1ccc(Cl)cc1` (stereo not drawn), the GI50 in the assay on 786-0 was 4.2 µM (inactive); with SNB-19, 3.68 µM (inactive); with UACC-62, 1.87 µM (inactive); with HOP-62 it was 5.22 µM (inactive); with K562 it was 2.57 µM (inactive); in the assay on TK-10, 4.57 µM (inactive). The GI50 in the assay with NCI-H226 is 4.58 µM (inactive); in the assay on A498, 4.76 µM (inactive); with NCI-H23 it was 2 µM (inactive); with KM12 it was 3.75 µM (inactive); with ACHN, 3.64 µM (inactive); with CCRF-CEM it was 2.34 µM (inactive). The GI50 in the assay on HCC 2998 was 4.02 µM (inactive).
Consider `O=C(/C=C\c1cccc2ccccc12)c1ccc(F)cc1`, for which the GI50 is 18.1 µM (inactive) in the assay with 786-0; 16.6 µM (inactive) in the assay with SNB-19; 13.9 µM (inactive) in the assay with UACC-62; 69.8 µM (inactive) in the assay with HOP-62; 11.1 µM (inactive) in the assay with K562; 15.3 µM (inactive) in the assay with TK-10. Further, the GI50 with NCI-H226 was 35.9 µM (inactive); with HCT-15, 15.1 µM; in the assay on A498, 29.7 µM (inactive); with NCI-H23, 20 µM (inactive); in the assay on KM12, 15 µM (inactive); in the assay on ACHN it was 17 µM (inactive). The GI50 in the assay with CCRF-CEM was 13.6 µM (inactive); in the assay on HCC 2998, 19.5 µM (inactive).
In the case of `CCOC(=O)c1cc(/C=C/C(C)=C/C(=O)OC)n(C)c1C`, the GI50 in the assay on 786-0 is > 100 µM (inactive); in the assay with SNB-19, > 100 µM (inactive); in the assay on UACC-62, 50.6 µM (inactive); in the assay on HOP-62, > 100 µM (inactive); with K562, 25.8 µM (inactive); in the assay with TK-10, > 100 µM (inactive). Moreover, the GI50 was > 100 µM (inactive) in the assay with NCI-H226; 63.8 µM in the assay with HCT-15; > 100 µM (inactive) with A498; > 100 µM (inactive) in the assay on NCI-H23; 59.2 µM (inactive) with KM12; 45.2 µM (inactive) with ACHN. Also, the GI50 was 61.5 µM (inactive) with CCRF-CEM and 92.5 µM (inactive) with HCC 2998.
For the compound `O=C(O)CCN(CCCN(CCC(=O)O)CCC(=O)O)CCC(=O)O`, the GI50 in the assay on 786-0, in the assay with UACC-62, with HOP-62, in the assay on K562, in the assay with SK-MEL-2 and in the assay on TK-10 was > 100 µM (inactive) each time. Moreover, the GI50 in the assay with HCT-15 is over 100 µM; in the assay with A498, > 100 µM (inactive); in the assay with NCI-H23, > 100 µM (inactive); in the assay on KM12 it was > 100 µM (inactive); in the assay with ACHN it was > 100 µM (inactive); in the assay on CCRF-CEM, > 100 µM (inactive). The GI50 in the assay on HCC 2998 is > 100 µM (inactive).
Take `CCCCCCCCCCCCCP(=O)(OC)OC`: the GI50 in the assay with 786-0 was 19.5 µM (inactive); with SNB-19, 20.8 µM (inactive); in the assay on UACC-62 it was 17.9 µM (inactive); in the assay on HOP-62, 14.9 µM (inactive); in the assay on K562, 23.2 µM (inactive); in the assay on SK-MEL-2, 17.5 µM (inactive). The GI50 was 17.8 µM (inactive) in the assay with TK-10; 19.2 µM (inactive) in the assay with NCI-H226; 17.7 µM in the assay with HCT-15; 18.7 µM (inactive) in the assay on NCI-H23; 17.5 µM (inactive) in the assay on KM12; 18.5 µM (inactive) with ACHN. In addition, the GI50 in the assay with CCRF-CEM was 20.8 µM (inactive); in the assay on HCC 2998 it was 21.5 µM (inactive).
Take `CC(C)NCCNC(=O)c1ccccc1Nc1c(Cl)cccc1Cl`: the GI50 in the assay on 786-0 is 4.16 µM (inactive); in the assay with SNB-19, 15.3 µM (inactive); in the assay with UACC-62, 15.8 µM (inactive); in the assay on HOP-62, 11.6 µM (inactive); in the assay on K562 it was 6.95 µM (inactive); with TK-10, 11.8 µM (inactive). The GI50 in the assay on NCI-H226 is 13.5 µM (inactive); in the assay with HCT-15 it was 13 µM; with NCI-H23, 17.7 µM (inactive); with KM12 it was 16.9 µM (inactive); with ACHN, 17.4 µM (inactive); with CCRF-CEM it was 10.5 µM (inactive). Besides, the GI50 with HCC 2998 was 2.84 µM (inactive).
Turning to `C[N+](C)(C)CC(=O)N/N=C(/Cc1cc(=O)oc2cc(O)ccc12)C(=O)Nc1ccc(Cl)cc1`, the GI50 in the assay with 786-0, with SNB-19, in the assay with UACC-62, with HOP-62, in the assay on K562 and with SK-MEL-2 was > 100 µM (inactive) each time. In addition, the GI50 in the assay on TK-10, in the assay on A498, in the assay with NCI-H23, in the assay with KM12, with ACHN and in the assay with CCRF-CEM was > 100 µM (inactive) in each case. In the assay on HCC 2998, the GI50 was > 100 µM (inactive).
